The values below come from US20250049735A1, “MEDICINE FOR STEATOHEPATITIS” (The University of Tokyo, priority 2021, published 2025).

In this experiment the test system is Atp8b1 E-KO mice. As to the method: All animal experiments were approved by and performed in accordance with the guidelines of the animal experiment committee of the University of Tokyo. To generate Atp8b1^flox/flox mice, ICR and C57BL/6J mice were purchased from Charles River Laboratories International, Inc. (Yokohama, Japan). Mice were kept under pathogen-free conditions at a room temperature of 23.5° C.±2.5° C. and a relative humidity of 52.5%+12.5% under a 14-hour light: 10-hour dark cycle. […] In order to supplement choline to pups, mother mice were fed with a 1.0% choline supplemented diet (D20011404, Research Diets) until weaning of their pups.
Male 3 to 4-week-old intestinal epithelial cell-specific Atp8b1 knockout (Atp8b1 E-KO) mice and control mice (littermate Flox/Flox mice) underwent laparotomy under isoflurane anesthesia. […] The blood was centrifuged at 1,700×g for 15 minutes, and plasma was separated. Thereafter, the plasma was flash-frozen in liquid nitrogen and was stored at −80° C. The liver was excised and was then flash-frozen in liquid nitrogen, and thereafter, the thus frozen liver was stored at −80° C., or was used for histological and electron microscopic analyses. The small intestine was excised, was then rinsed with cold PBS containing 0.5m M taurocholic acid, and was then used for histological and electron microscopic analyses, or for preparation of epithelial cells. To isolate epithelial cells from small intestine, TTDR kit (Becton Dickinson, Becton Drive Franklin Lakes, NJ) was used. According to the manufacturer's instructions included with the kit, the small intestine was opened longitudinally, was sliced into small fragments with a size of roughly 2 mm. The fragments were incubated with 1×TTDR diluted with DMEM (11995-065, gibco) at 37° C. for 30 minutes, and the resulting fragments were then mixed with 2 mM EDTA/PBS containing 1% BSA. The thus obtained mixture was filtrated through a 70 μm cell strainer (VWR21008-952; Corning Inc, Corning, NY), and was then centrifugated at 250×g at 4° C. for 10 minutes. The obtained cell pellets were incubated with 1×Pharm Lyse (Becton Dickinson, Becton Drive Franklin Lakes, NJ) at room temperature for 15 minutes for the lysis of red blood cells, and the resultant was then mixed with 2 mM EDTA/PBS containing 1% BSA. The thus obtained mixture was centrifuged at 250×g at 4° C. for 10 minutes. The prepared epithelial cells were flash frozen in liquid nitrogen, and were then stored at −80° C.
Metabolites were extracted from plasma, liver, and intestinal epithelial cells with methanol. After centrifugation at 20,000×g at 4° C. for 5 minutes, the supernatant was mixed with 400 mM ammonium sulfate at a ratio of 19:1. The mixture was centrifuged at 20,000×g at 4° C. for 5 minutes. The supernatant was applied to the LC/MS/MS system, which consisted of a UHPLC Nexera liquid chromatography system (Shimadzu co., Kyoto, Japan) and a 5500QTRAP mass spectrometer (AB Sciex pte. ltd., Toronto, Canada). The analytes were passed through a ZIC-CHILIC column (2.1×100 mm, 3 μm, Merck Millipore, Darmstadt, Germany) at a temperature of 30° C. with a gradient elution of the mobile phases, 10 mM ammonium formate aqueous solution and acetonitrile at a flow rate at 0.4 mL/min. The eluent was ionized using electrospray ionization and was scanned with an MRM mode (see Yuan et al., Nat. Protoc. 2012, 7 (5), 872-881. https://doi.org/10.1038/nprot.2012.024). Each MRM peak was assigned to a target molecule in comparison with its authentic standard.
The concentrations of choline, betaine, dimethylglycine (N,N-dimethylglycine) and glycerophosphorylcholine (sn-glycero-3-phosphocholine) in plasma were determined by liquid chromatography/tandem mass spectrometry (LC/MS/MS) assay. The sample was mixed with 98-fold volume of ethanol and 1-fold volume of the internal standard (IS) solution (10 μmol/L choline in water, 10 μmol/L glycerophosphorylcholine in water, and 1 μmol/L betaine in water).

Where [1] appears, read: liver of pups, mothers fed 1% choline supplemented diet vs normal diet (0.1% choline).
[2] abbreviates: liver of pups, mothers fed 1% choline supplemented diet, compared with control mice.
Where [3] appears, read: plasma and liver of Atp8b1 E-KO pups, mothers fed 1% choline supplemented diet, summary statement.
Where [4] appears, read: plasma of pups, mothers fed 1% choline supplemented diet vs normal diet (0.1% choline).
Setting [5] is: plasma of pups, mothers fed 1% choline supplemented diet, compared with control mice.
The mark [6] stands for this setting: small intestinal epithelial cells of pups, mothers fed 1% choline supplemented diet vs normal diet (0.1% choline).

With `C[N+](C)(C)CCO` [choline], under setting [1], the “concentration of choline in liver” value is “not changed”, the “concentration of glycerophosphorylcholine (GPC) in liver” value is “not changed” and the “concentration of phosphorylcholine in liver” value is recorded as “not changed”. Besides, under setting [2], the “concentration of betaine in liver” value is listed as “recovered”, the “concentration of dimethylglycine in liver” value was “recovered” and the “concentration of phosphatidylcholine (PC) in liver” value is “recovered”. For the same compound, where the note is “plasma and liver of Atp8b1 E-KO pups, mothers fed 1% choline supplemented diet vs normal diet, summary statement”, the “amount of choline in the pups” value is “no change”. In addition, under setting [3], the “amount of betaine in the pups” value is on record as “increased”, the “amount of dimethylglycine in the pups” value is listed as “increased” and the “amount of phosphatidylcholine (PC) in the pups” value is “increased”. Under setting [4], the “concentration of choline in plasma” value was “not changed”, the “concentration of glycerophosphorylcholine (GPC) in plasma” value is “not changed” and the “concentration of phosphorylcholine in plasma” value is on record as “not changed”. In addition, under setting [5], the “concentration of betaine in plasma” value is “recovered” and the “concentration of dimethylglycine in plasma” value is “recovered”. In addition, for the setting “small intestinal epithelial cells of pups, mothers fed 1% choline supplemented diet”, the “concentration of betaine in small intestinal epithelial cells” value was “not changed”. Moreover, under setting [6], the “concentration of choline in small intestinal epithelial cells” value was “not changed”, the “concentration of glycerophosphorylcholine (GPC) in small intestinal epithelial cells” value is on record as “not changed” and the “concentration of phosphorylcholine in small intestinal epithelial cells” value was “not changed”.
